According to US10328029B2, “Pharmaceutical composition” (Cycle Pharmaceuticals, priority 2014, dated 2019):
“Also recorded” adds a separate entry of the source.

Assays:
Format in all cases: physicochemical
[1] = Process stability of nitisinone in acetone, in water and on drying (HPLC purity)
Procedure: It is a requirement of GMP manufacturing that the final recrystallisation includes a filtration through a polishing filter to remove particulates, and so the GMP process would involve filtration of the hot acetone solution. This means that it is likely that the solution of Nitisinone in acetone at 45° C. could be held at elevated temperature for a prolonged period of time. The stability of stage 1 at 45° C. was tested over a 6 hour period to confirm that the Nitisinone would not degrade under these conditions (Table 4). […] Therefore, acetone could be used in the hot filtration step of the GMP process.
On scale-up, drying from water can often take much longer than on lab scale and could potentially result in degradation of the product, especially with a product that could potentially be prone to hydrolysis. Following filtration of Nitisinone from the final recrystallisation, the filter-cake was washed with water to remove the residual mother liquors. Due to its high solubility in acetone and other organic solvents, a solvent wash was not appropriate as high yield losses would likely be incurred. A water wash also helped remove residual inorganics. Drying studies were therefore carried out to determine the stability of the recrystallised material and try to ensure that there would be no unexpected degradation during the drying phase of the scale-up manufacture (Table 5).
Two separate batches were heated over a 60 hour period with purity and KF values taken (entries 1-10). […] A sample of Nitisinone was suspended in water and heated at 40° C. with no vacuum for 60 hours (entries 11-13), to simulate poor drying. […] A second sample was wetted each morning and dried under vacuum overnight to study the effect of repeatedly wetting and drying the sample (entries 14-19).

[2] = Excipient compatibility: nitisinone mixed with fillers/lubricants, stored at 40° C./75% RH, cyclised impurity by HPLC
Procedure: In order to identify suitable excipients to develop a temperature stable formulation, 4 standard fillers and 5 lubricants were mixed with nitisinone and stored under accelerated conditions for 1 week and 3 weeks. 10 preparations for each excipient were prepared by weighing approximately 10 mg of nitisinone and 500 mg of the excipient into a glass vial and mixing together by gentle swirling. To 5 lots of preparations, 50 μl of water was added to wet the sample. For a control, 10 preparations of the drug substance were prepared by weighing approximately 10 mg nitisinone into a suitable glass vial and to 5 lots of preparations, 50 μl of water was added to wet the sample.
HPLC analysis was used to quantify the relative amount of the cyclised impurity (RRT 0.7) for each formulation at each time point (Tables 7 and 8).
(§1) In the foregoing examples, the HPLC conditions were as follows: […]

[3] = API stability study of nitisinone under long-term and accelerated storage (HPLC)
Procedure: Data provided by the stability testing programme was conducted with the substance under investigation stored in the actual packaging used for storage and distribution. This was to determine if the substance remained compliant with the ICH specification criteria when tested over the period of its shelf life plus one year.
A sample of approximately 150 g of substance was used for the testing programme, with individual samples being approximately 7 g in size. The test was designed to simulate the product package, i.e. the sample was packed in a polythene bag, sealed and then placed inside another polythene bag liner. The sample was then held in a fibreboard cask with a fibreboard lid.
The sample was stored in an incubator maintained at 25° C.±2° C./60%±5% relative humidity (RH), and 40° C.±2° C./75%±5% RH.
After testing of an initial sample, a sample was tested at certain time intervals (Table 6), i.e. monthly (0 m, 1 m, 2 m, etc.).
There was no decrease in purity and the cyclised impurity remained below the identification threshold (0.10%) throughout the stability testing (measured by HPLC).
as §1

- stability of stage 1 nitisinone in acetone (purity, in words) ([1]; acetone, 45° C., over a 6 hour period): No loss of purity was observed
- stability of Nitisinone in water (purity, in words) ([1]; suspended in water, heated at 40° C., no vacuum, 60 hours): No loss of purity was observed
- stability of recrystallised Nitisinone to extended drying (purity, in words) ([1]; two batches heated over a 60 hour period): little to no loss in purity
- Cyclised Impurity - RRT 0.7 ([2]; 1 week, Dry): 0.02 norm %
- Cyclised Impurity - RRT 0.7 ([2]; 1 week, Wet (50 μl water)): 0.07 norm %
- Cyclised Impurity - RRT 0.7 ([2]; 3 weeks, Dry): 0.13 norm %
- Cyclised Impurity - RRT 0.7 ([2]; 3 weeks, Wet (50 μl water)): 0.20 norm %
- Cyclised Impurity - RRT 0.7 ([2]; Initial, about 10 mg nitisinone + 500 mg excipient): 0.01 norm %
- Stability of API over time ([3]; 25° C./60% RH, 0 m): 99.90% w/w
- Stability of API over time ([3]; 25° C./60% RH, 1 m): 99.87% w/w
- Stability of API over time ([3]; 25° C./60% RH, 2 m): 99.88% w/w
- Stability of API over time ([3]; 25° C./60% RH, 3 m): 99.91% w/w
- Stability of API over time ([3]; 25° C./60% RH, 6 m): 99.91% w/w
- Stability of API over time ([3]; 40° C./75% RH, 0 m): 99.90% w/w
- Stability of API over time ([3]; 40° C./75% RH, 1 m): 99.89% w/w
- Stability of API over time ([3]; 40° C./75% RH, 2 m): 99.88% w/w
- Stability of API over time ([3]; 40° C./75% RH, 3 m): 99.92% w/w
- Stability of API over time ([3]; 40° C./75% RH, 6 m): 99.96% w/w
SMILES: O=C1CCCC(=O)C1C(=O)c1ccc(C(F)(F)F)cc1[N+](=O)[O-] [Nitisinone, 2-[2-nitro-4-(trifluoromethyl)benzoyl] cyclohexane-1,3-dione]
- API stability with respect to cyclised impurity (in words) ([3]; 25° C./60% RH and 40° C./75% RH, listed as API): no formation of the aforementioned cyclised impurity was observed; also recorded: no deviation from specification
